Data on two compounds can be found in patent US20100298420A1, “Compositions and Methods for Intracellular Delivery” (Yissum, Research Development Company of the Hebrew …, priority 2001, published 2010).

Assay type in all cases: cell-based
Assay [1] relates to Swiss albino mouse fibroblast cells (3T3). Description: CLSM experiment: intracellular delivery of fluorescent probes. The protocol:
Subconfluent Swiss albino mouse fibroblast cells (3T3) were grown in Dulbeco's Modified Eagles Medium (DMEM) on coverslips in wells of 3.5 cm in diameter for Confocal Laser Scanning Microscopy (CLSM) and in six-well plastic plates for flow cytometric analysis. The cells were washed twice with phosphate buffered saline (PBS), adjusted to 37° C. in the incubator, and washed again. Two ml of PBS were added to each well and 50 μl of the test solution was added (Compositions I-III, control systems A-B or any compositions containing PC*, RR or D-289 listed above). […] The coverslip were observed under a Sarastro-Phibos1000 CLS microscope equipped with a 488 nm argon ion laser beam and attached to a Universal Zeiss epifluorescence microscopy with an oil immerse Planapo 63×1.4 NA objective lens. Fluorescence emission was detected above 560 nm for RR, at 527 nm for D-289 and […] for calcein.

Assay [2] concerns Bacillus Subtilis ATCC-6633. Description: Susceptibility testing, zone of inhibition on agar. As to conditions: 37° C., 24 h. The procedure:
(§1) Various concentrations of erythromycin in sterile water (1.25, 7.5, 10, 12.5 μg/ml) The bacterial strains used were:
(§2) Each erythromycin concentration was mixed with Composition I, Composition II and Standard solution with phosphate buffer saline (PBS, Biological Industries, Beit HaEmek Israel 1:1 by volume. 20 μl of Compositions I-II and standards containing various antibiotic concentrations was added to 6 mm wells on Petri plates containing Tryptic Soy Agar (TSA) inoculated with the microorganisms. The preparation was incubated aerobically at 37° C. for 24 h. The zone of inhibition for each sample was measured.

The test system of assay [3] is Staphylococcus Aureus ATCC-29213. Description: Susceptibility testing, zone of inhibition on agar. As to conditions: 37° C., 24 h, in mm. The procedure: as §1, §2
The test system of assay [4] is Staphylococcus Aureus erythromycin resistant (clinical strain). Description: Susceptibility testing, zone of inhibition on agar. The settings on record: 37° C., 24 h. The protocol:
as §1, §2

Where [5] appears, read: Erythromycin conc. 10 microgram/ml.

Turning to `CCN(CC)c1ccc(C=Cc2cc[n+](C)cc2)cc1.[I-]` [Composition D-289, 4-(4-diethylamino)styryl-N-methylpyridinium iodode], the “Fluorescence in the nucleus of the cell” value in assay [1] was “fluorescence was also observed in the nucleus”.
Consider `CC[C@H]1OC(=O)[C@H](C)[C@@H](O[C@H]2C[C@@](C)(OC)[C@@H](O)[C@H](C)O2)[C@H](C)[C@@H](O[C@@H]2O[C@H](C)C[C@H](N(C)C)[C@H]2O)[C@](C)(O)C[C@@H](C)C(=O)[C@H](C)[C@@H](O)[C@]1(C)O` [Standard, Erythromycin], for which the zone of inhibition at 1.25 µg/mL in assay [2] (ATCC6633, Erythromycin conc. 1.25 microgram/ml) came to 7.83 ± 0.26 mm. Further, the zone of inhibition at 7.5 µg/mL in assay [2] (ATCC6633, Erythromycin conc. 7.5 microgram/ml) stood at 13.6 ± 0.38 mm. For the same compound, the Zone of inhibition worked out at 0 in assay [3] (Erythromycin conc. 1.25 microgram/ml) and 13.67 ± 026 in assay [3] (setting [5]). In assay [4] (setting [5]), the zone of inhibition at 10 µg/mL was 0 mm. The same compound showed a zone of inhibition at 12.5 µg/mL in assay [4] (Erythromycin conc. 12.5 microgram/ml) of 7.67 ± 0.26 mm.

In general, zone of inhibition refers to the extent of the growth-free halo in a diffusion test.
